Results published in patent US11028095B2, “Spiro-lactam and bis-spiro-lactam NMDA receptor modulators and uses thereof” (Aptinyx Inc., priority 2016, dated 2021).
Like-named read-outs stand apart in the source and are kept apart here.

Assays:
Type in all cases: biochemical
[1] = target: T1, NMDAR2B expressing HEK cell membranes (Homo sapiens, UniProt Q13224); test: NMDAR agonist assay, [3H]MK-801 binding, NMDAR2B; settings: 50 μM glutamate; for EC50: [3H]MK-801 binding, read-out: NMDAR2B log EC50 (converted)
T1 construct: expressed in transfected cells; host or cells: HEK cells (membrane extract)
Procedure: (§1) (nonequilibrium conditions).
(§2) The baseline value was determined from the best fit curve of the DPM values modeled using the GraphPad program and the log(agonist) vs. response(three parameters) algorithm was then subtracted from all points in the dataset.

[2] = target: T2, NMDAR2A expressing HEK cell membranes (Homo sapiens, UniProt Q12879); test: NMDAR agonist assay, [3H]MK-801 binding, NMDAR2A; settings: 50 μM glutamate; for EC50: [3H]MK-801 binding, read-out: NMDAR2A: log EC50 (converted)
T2 construct: expressed in transfected cells; host or cells: HEK cells (membrane extract)
Procedure: as §1, §2

[3] = target: T3, NMDAR2A expressing HEK cell membranes (Homo sapiens, UniProt Q05586+Q12879); test: NMDAR agonist assay, [3H]MK-801 binding, NMDAR2A; settings: [3H]MK-801 binding
T3 construct: expressed in transfected cells; host or cells: HEK cells (membrane extract)
Procedure: as §1, §2

[4] = target: T4, NMDAR2B expressing HEK cell membranes (Homo sapiens, UniProt Q05586+Q13224); test: NMDAR agonist assay, [3H]MK-801 binding, NMDAR2B; settings: for EC50: [3H]MK-801 binding; for Emax: relative to 1 mM glycine, read-out: NMDAR2B: % maximal [3H]MK-801 binding relative to 1 mM glycine
T4 construct: expressed in transfected cells; host or cells: HEK cells (membrane extract)
Procedure: as §1, §2

[5] = 50 μM glutamate, read-out: NMDAR2A: log EC50 (converted)
[6] = 50 μM glutamate, read-out: NMDAR2B log EC50 (converted)

T3 sequence (Q12879 23-1464, other chains not shown): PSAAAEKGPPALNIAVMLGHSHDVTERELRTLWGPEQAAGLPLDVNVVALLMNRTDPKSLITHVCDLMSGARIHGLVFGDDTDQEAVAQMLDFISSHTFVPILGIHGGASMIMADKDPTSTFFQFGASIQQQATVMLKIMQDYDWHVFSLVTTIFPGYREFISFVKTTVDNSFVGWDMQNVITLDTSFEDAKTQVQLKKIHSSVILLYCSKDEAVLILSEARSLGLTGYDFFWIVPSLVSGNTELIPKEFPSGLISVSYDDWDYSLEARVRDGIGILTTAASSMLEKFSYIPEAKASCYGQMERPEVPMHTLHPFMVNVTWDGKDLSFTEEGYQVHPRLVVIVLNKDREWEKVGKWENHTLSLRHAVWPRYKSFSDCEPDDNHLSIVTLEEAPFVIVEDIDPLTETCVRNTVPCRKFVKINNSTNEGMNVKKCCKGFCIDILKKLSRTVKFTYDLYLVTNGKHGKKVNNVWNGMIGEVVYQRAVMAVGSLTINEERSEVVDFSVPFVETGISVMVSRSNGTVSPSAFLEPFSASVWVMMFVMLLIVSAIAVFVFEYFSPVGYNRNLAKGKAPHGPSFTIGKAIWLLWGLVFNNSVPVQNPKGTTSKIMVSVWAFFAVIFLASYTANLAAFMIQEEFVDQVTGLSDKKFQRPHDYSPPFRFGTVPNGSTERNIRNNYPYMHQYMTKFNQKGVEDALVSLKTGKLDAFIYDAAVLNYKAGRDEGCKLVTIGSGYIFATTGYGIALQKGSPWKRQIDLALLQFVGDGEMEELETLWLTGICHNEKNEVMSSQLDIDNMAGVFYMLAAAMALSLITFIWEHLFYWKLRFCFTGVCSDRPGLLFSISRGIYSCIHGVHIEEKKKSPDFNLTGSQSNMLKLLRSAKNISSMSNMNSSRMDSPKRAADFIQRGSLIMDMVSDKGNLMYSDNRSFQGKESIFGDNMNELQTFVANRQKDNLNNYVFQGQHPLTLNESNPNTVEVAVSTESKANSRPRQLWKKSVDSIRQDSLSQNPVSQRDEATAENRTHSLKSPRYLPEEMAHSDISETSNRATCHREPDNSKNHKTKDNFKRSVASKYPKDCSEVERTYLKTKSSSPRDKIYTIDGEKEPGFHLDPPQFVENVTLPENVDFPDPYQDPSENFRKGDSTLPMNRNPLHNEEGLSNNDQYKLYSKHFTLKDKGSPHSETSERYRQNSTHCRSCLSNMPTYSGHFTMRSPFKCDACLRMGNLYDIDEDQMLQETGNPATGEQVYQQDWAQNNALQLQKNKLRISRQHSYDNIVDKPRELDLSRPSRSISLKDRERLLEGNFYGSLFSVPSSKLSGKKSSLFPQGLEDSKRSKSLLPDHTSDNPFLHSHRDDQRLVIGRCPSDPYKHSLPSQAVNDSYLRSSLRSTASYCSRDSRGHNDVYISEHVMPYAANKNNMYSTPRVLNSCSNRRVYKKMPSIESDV
T2 sequence (Q12879 23-1464, other chains not shown): as above
T1 sequence (Q13224 27-1484, other chains not shown): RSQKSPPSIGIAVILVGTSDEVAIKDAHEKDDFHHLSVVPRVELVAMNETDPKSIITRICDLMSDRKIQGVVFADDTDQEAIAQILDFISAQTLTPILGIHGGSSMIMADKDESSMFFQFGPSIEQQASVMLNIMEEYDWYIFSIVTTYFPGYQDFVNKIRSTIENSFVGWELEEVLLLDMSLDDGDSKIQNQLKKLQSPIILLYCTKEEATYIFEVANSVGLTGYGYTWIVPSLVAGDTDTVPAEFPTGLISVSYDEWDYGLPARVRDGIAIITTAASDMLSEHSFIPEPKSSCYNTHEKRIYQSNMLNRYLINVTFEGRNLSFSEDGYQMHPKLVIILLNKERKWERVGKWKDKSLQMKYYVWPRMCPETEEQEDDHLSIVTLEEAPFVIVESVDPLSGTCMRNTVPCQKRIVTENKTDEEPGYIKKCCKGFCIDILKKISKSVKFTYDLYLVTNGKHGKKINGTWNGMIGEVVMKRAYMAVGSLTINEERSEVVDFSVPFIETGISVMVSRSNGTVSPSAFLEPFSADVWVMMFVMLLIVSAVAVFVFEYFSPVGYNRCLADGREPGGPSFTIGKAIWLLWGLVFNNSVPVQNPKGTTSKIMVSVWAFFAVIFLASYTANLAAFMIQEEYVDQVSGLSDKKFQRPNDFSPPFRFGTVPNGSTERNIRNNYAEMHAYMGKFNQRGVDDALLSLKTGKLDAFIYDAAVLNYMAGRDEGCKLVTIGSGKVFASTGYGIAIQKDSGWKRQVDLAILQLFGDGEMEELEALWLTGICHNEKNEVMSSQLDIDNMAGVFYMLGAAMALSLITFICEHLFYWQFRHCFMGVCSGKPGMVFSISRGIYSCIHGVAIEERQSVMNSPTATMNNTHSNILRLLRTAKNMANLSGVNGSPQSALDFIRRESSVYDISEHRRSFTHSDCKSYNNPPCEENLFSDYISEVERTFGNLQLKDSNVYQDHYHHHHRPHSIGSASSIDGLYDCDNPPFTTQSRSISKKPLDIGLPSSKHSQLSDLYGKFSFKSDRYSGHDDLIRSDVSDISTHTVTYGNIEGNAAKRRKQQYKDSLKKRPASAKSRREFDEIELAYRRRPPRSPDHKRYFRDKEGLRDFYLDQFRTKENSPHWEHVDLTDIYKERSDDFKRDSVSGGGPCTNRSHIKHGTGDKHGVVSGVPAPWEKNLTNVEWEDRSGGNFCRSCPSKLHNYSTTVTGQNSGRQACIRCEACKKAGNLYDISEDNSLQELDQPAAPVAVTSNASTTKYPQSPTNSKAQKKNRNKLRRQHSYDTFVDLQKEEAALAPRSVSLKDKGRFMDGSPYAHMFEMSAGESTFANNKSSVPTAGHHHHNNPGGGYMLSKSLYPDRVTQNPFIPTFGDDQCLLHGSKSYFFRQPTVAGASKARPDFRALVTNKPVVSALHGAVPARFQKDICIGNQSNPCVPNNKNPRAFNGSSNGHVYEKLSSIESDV

SMILES	EC50 [1]	NMDAR2B: % maximal [3H]MK-801 binding relative to 1 mM glycine [1]	NMDAR2A: % maximal [3H]MK-801 binding relative to 1 mM glycine [2]	EC50 [3, 5]	EC50 [4, 6]	EC50 [2]	Emax ([4]; 50 μM glutamate)	EC50 ([4]; NMDAR2B: log EC50, 50 μM glutamate)	EC50 ([3]; NMDAR2A: log EC50, 50 μM glutamate)
C[C@@H](O)[C@H](NC(=O)C1CCC2(CNC2=O)N1C)C(N)=O (single isomer, unassigned) [BD]	< 1 nM	+ (<100%=+)	+ (<100%=+)	< 1 nM	–	–	–	–	–
CC(C)C(=O)N1C(C(=O)N[C@H](C(N)=O)[C@@H](C)O)CCC12CNC2=O (single isomer, unassigned) [AR]	–	− (−=0)	− (−=0)	> 100 nM	> 100 nM	–	–	–	–
C[C@@H](O)[C@H](NC(=O)C1CCC2(CNC2=O)N1Cc1ccccc1)C(N)=O (single isomer, unassigned) [AL-2]	–	− (−=0)	+ (<100%=+)	–	> 100 nM	–	–	–	–
CNC(=O)C(C(C)O)N(C)CC1CCC2(CN(OCc3ccccc3)C2=O)N1 (single isomer, unassigned) [CX]	< 1 nM	++ (>100%=++)	+ (<100%=+)	–	–	< 1 nM	–	–	–
CNC(=O)[C@@H](NCC1CCC2(CN(OCc3ccccc3)C2=O)N1C(=O)OC(C)(C)C)[C@@H](C)O (single isomer, unassigned) [BN]	> 100 nM	–	–	–	–	> 100 nM	–	–	–
CC(O)C(C(N)=O)N(C)CC1CCC2(CN(OCc3ccccc3)C2=O)N1 (single isomer, unassigned) [CS]	< 1 nM	+ (<100%=+)	− (−=0)	> 100 nM	–	–	–	–	–
C[C@@H](O)[C@H](NCC1CCC2(CN(OCc3ccccc3)C2=O)N1C(=O)OC(C)(C)C)C(=O)N(C)C (single isomer, unassigned) [BR]	–	++ (>100%=++)	+ (<100%=+)	< 1 nM	–	–	–	–	–
CC(C)CN1C(C(=O)N[C@H](C(N)=O)[C@@H](C)O)CCC12CNC2=O (single isomer, unassigned) [BB]	–	+ (<100%=+)	+ (<100%=+)	–	< 1 nM	–	–	–	–
C[C@@H](O)[C@H](NCC1CCC2(CNC2=O)N1C(=O)OC(C)(C)C)C(=O)N(C)C (single isomer, unassigned) [BT]	–	− (−=0)	+ (<100%=+)	< 1 nM	> 100 nM	–	–	–	–
CC(O)C(NCC1CCC2(CN(OCc3ccccc3)C2=O)N1)C(N)=O (single isomer, unassigned) [CL]	< 1 nM	+ (<100%=+)	+ (<100%=+)	< 1 nM	–	–	–	–	–
CC(C)(C)OC(=O)N1C(C(N)=O)CCC12CNC2=O (single isomer, unassigned) [BF]	–	+ (<100%=+)	+ (<100%=+)	< 1 nM	< 1 nM	–	–	–	–
CN1C2(CCC13CNC3=O)CNC2=O (single isomer, unassigned) [AB-1, 5-methyl-2,5,8-triazadispiro[3.1.36.24]undecane-1,7-dione]	–	− (−=0)	+ (<100%=+)	–	–	–	–	> 100 nM	< 1 nM
CNC(=O)C(NCC1CCC2(CNC2=O)N1)C(C)O (single isomer, unassigned) [CR]	< 1 nM	++ (>100%=++)	+ (<100%=+)	< 1 nM	–	–	–	–	–
CNC(=O)C(NCC1CCC2(CN(OCc3ccccc3)C2=O)N1)C(C)O (single isomer, unassigned) [CP]	< 1 nM	–	–	–	–	< 1 nM	–	–	–
C[C@@H](O)[C@H](NC1CN(C(=O)OC(C)(C)C)C2(CNC2=O)C1)C(N)=O (single isomer, unassigned) [CH]	> 100 nM	− (−=0)	− (−=0)	> 100 nM	–	–	–	–	–
CC(C)CN1C(C(N)=O)CCC12CNC2=O (single isomer, unassigned) [DD, 5-isobutyl-1-oxo-2,5-diazaspiro[3.4]octane-6-carboxamide]	< 1 nM	+ (<100%=+)	+ (<100%=+)	–	–	< 1 nM	–	–	–
CNC(=O)C(NCC1CCC2(CNC2=O)N1)C(C)O (single isomer, unassigned) [CQ]	–	–	− (−=0)	> 100 nM	< 1 nM	–	> 100%	–	–
CC(O)C(NCC1CCC2(CNC2=O)N1)C(N)=O (single isomer, unassigned) [CN]	< 1 nM	+ (<100%=+)	++ (>100%=++)	–	–	< 1 nM	–	–	–
C[C@@H](O)[C@H](NCC1CCC2(CN(OCc3ccccc3)C2=O)N1C(=O)OC(C)(C)C)C(=O)N(C)C (single isomer, unassigned) [BQ]	–	–	− (−=0)	> 100 nM	< 1 nM	–	< 100%	–	–
CC(O)C(C(N)=O)N(C)CC1CCC2(CN(OCc3ccccc3)C2=O)N1 (single isomer, unassigned) [CT]	–	–	+ (<100%=+)	< 1 nM	< 1 nM	–	< 100%	–	–

More lines, main results first:

EC50 [1]	NMDAR2B: % maximal [3H]MK-801 binding relative to 1 mM glycine [1]	NMDAR2A: % maximal [3H]MK-801 binding relative to 1 mM glycine [2]	EC50 [3, 5]	EC50 [4, 6]	EC50 [2]	Emax ([4]; 50 μM glutamate)	SMILES	EC50 ([4]; NMDAR2B: log EC50, 50 μM glutamate)	EC50 ([3]; NMDAR2A: log EC50, 50 μM glutamate)
–	++ (>100%=++)	+ (<100%=+)	–	< 1 nM	< 1 nM	–	NC(=O)C1CCC2(CNC2=O)N1Cc1ccc(F)cc1 (single isomer, unassigned) [DH, 5-(4-fluorobenzyl)-1-oxo-2,5-diazaspiro[3.4]octane-6-carboxamide]	–	–
< 1 nM	+ (<100%=+)	+ (<100%=+)	< 1 nM	–	–	–	O=C1NCC12CN(Cc1ccc(F)cc1)C1(CNC1=O)C2 (single isomer, unassigned) [DN, 10-(4-fluorobenzyl)-2,8,10-triazadispiro[3.1.3^6.2^4]undecane-1,7-dione]	–	–
–	− (−=0)	+ (<100%=+)	< 1 nM	> 100 nM	–	–	O=C1NCC12CN(Cc1ccccc1)C1(CNC1=O)C2 (single isomer, unassigned) [DO, 10-benzyl-2,8,10-triazadispiro[3.1.3^6.2^4]undecane-1,7-dione]	–	–
–	+ (<100%=+)	+ (<100%=+)	< 1 nM	< 1 nM	–	–	O=C1NCC12CN(Cc1ccccc1)C1(CNC1=O)C2 (single isomer, unassigned) [DR, 10-benzyl-2,8,10-triazadispiro[3.1.3^6.2^4]undecane-1,7-dione]	–	–
> 100 nM	− (−=0)	− (−=0)	–	–	> 100 nM	–	CC(C)(C)OC(=O)N1C2(CCC13CNC3=O)CNC2=O (single isomer, unassigned) [AA-3, tert-butyl 1,7-dioxo-2,5,8-triazadispiro[3.1.36.24]undecane-5-carboxylate]	–	–
–	− (−=0)	+ (<100%=+)	–	> 100 nM	< 1 nM	–	CC(C)C(=O)N1C2(CCC13CNC3=O)CNC2=O (single isomer, unassigned) [AI, 5-isobutyryl-2,5,8-triazadispiro[3.1.36.24]undecane-1,7-dione]	–	–
< 1 nM	–	–	–	–	< 1 nM	–	NC(=O)C1CCC2(CNC2=O)N1Cc1ccccc1 (single isomer, unassigned) [DF, 5-benzyl-1-oxo-2,5-diazaspiro[3.4]octane-6-carboxamide]	–	–
> 100 nM	− (−=0)	+ (<100%=+)	–	–	–	–	CC(C)(C)OC(=O)N1C2(CCC13CNC3=O)CNC2=O (single isomer, unassigned) [AA-2, tert-butyl 1,7-dioxo-2,5,8-triazadispiro[3.1.36.24]undecane-5-carboxylate]	–	–
< 1 nM	+ (<100%=+)	+ (<100%=+)	< 1 nM	–	–	–	O=C1NCC12CN(Cc1ccc(F)cc1)C1(CNC1=O)C2 (single isomer, unassigned) [DM, 10-(4-fluorobenzyl)-2,8,10-triazadispiro[3.1.3^6.2^4]undecane-1,7-dione]	–	–
< 1 nM	+ (<100%=+)	− (−=0)	> 100 nM	–	–	–	O=C1NCC12CN(Cc1ccc(F)cc1)C1(CNC1=O)C2 (single isomer, unassigned) [DL, 10-(4-fluorobenzyl)-2,8,10-triazadispiro[3.1.3^6.2^4]undecane-1,7-dione]	–	–
–	–	+ (<100%=+)	< 1 nM	< 1 nM	–	< 100%	O=C1NCC12CN(Cc1ccc(F)cc1)C1(CNC1=O)C2 (single isomer, unassigned) [DK, 10-(4-fluorobenzyl)-2,8,10-triazadispiro[3.1.3^6.2^4]undecane-1,7-dione]	–	–
